Reference: patent publication US8754075B2, “1,3-oxazines as BACE1 and/or BACE2 inhibitors” (Hoffmann-La Roche Inc., priority 2011, dated 2014)

Legend:
BACE1 = BACE1 (Homo sapiens (Human), UniProt P56817); assay: Cellular Aβ-lowering assay; assay type: cell-based; details: HEK293 cells stably expressing human APP wt (APP695); Aβ40 in supernatant by ELISA after 18-20 hrs
Experimental: Cellular Aβ-Lowering Assay: Human HEK293 cells which are stably transfected with a vector expressing a cDNA of the human APP wt gene (APP695) were used to assess the potency of the compounds in a cellular assay. The cells were seeded in 96-well microtiter plates in cell culture medium (Iscove, plus 10% (v/v) fetal bovine serum, glutamine, penicillin/streptomycin) to about 80% confluence and the compounds were added at a 10× concentration in 1/10 volume of medium without FCS containing 8% DMSO (final concentration of DMSO was kept at 0.8% v/v). After 18-20 hrs incubation at 37° C. and 5% CO2 in a humidified incubator the culture supernatant was harvested for the determination of Aβ40 concentrations. […] After blocking of non-specific binding sites with e.g. 1% BSA and washing, the culture supernatants were added in suitable dilutions together with a horseradish peroxidase-coupled Aβ detection antibody (e.g., antibody 4G8, Senetek, Maryland Heights, Mo.) and incubated for 5 to 7 hrs. Subsequently the wells of the microtiter plate were washed extensively with Tris-buffered saline containing 0.05% Tween 20 and the assay was developed with tetramethylbenzidine/H2O2 in citric acid buffer. After stopping the reaction with one volume […] the reaction was measured in an ELISA reader at 450 nm wavelength. The concentrations of Aβ in the culture supernatants were calculated from a standard curve obtained with known amounts of pure Aβ peptide.

BACE2 = BACE2 (Rattus norvegicus (Rat), UniProt Q6IE75); assay: Assay for BACE inhibition by measuring cellular TMEM27 cleavage; assay type: cell-based; details: INS-TMEM27 (INS1e rat cell line, inducible hTMEM27); shed TMEM27 by ELISA
Sequence of BACE2 (Q6IE75 63-514): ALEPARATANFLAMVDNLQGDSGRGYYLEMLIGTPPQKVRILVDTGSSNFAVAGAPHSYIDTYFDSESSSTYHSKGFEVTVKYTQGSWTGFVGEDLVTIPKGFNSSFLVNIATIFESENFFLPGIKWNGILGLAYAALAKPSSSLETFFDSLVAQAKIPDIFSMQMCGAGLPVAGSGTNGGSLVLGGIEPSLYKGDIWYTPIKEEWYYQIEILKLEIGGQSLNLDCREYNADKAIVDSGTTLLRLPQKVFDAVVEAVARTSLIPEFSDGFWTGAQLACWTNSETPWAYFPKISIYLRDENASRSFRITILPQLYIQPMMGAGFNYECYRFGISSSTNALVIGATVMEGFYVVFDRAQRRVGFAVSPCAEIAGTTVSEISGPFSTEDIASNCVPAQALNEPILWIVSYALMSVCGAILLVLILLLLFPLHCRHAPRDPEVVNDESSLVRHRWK
Text: Assay for BACE Inhibition by Measuring Cellular TMEM27 Cleavage:
The assay uses the principle of inhibition of human TMEM27 cleavage by endogenous cellular BACE2 in the Ins1e rat cell line and shedding from the cell surface into the culture medium, followed by detection in an ELISA assay Inhibition of BACE2 prevents the cleavage and shedding in a dose-dependent manner.
The stable cell line “INS-TMEM27” represents an INS1e-derived cell line with inducible expression (using the TetOn system) of full-length hTMEM27 in a doxycycline-dependent manner. The cells are cultured throughout the experiment in RPMI1640+Glutamax (Invitrogen) Penicillin/Streptomycin, 10% Fetal bovine serum, […], […], 100 micrograms/ml G418 and 100 microgram/ml hygromycin and are grown inadherent culture at 37° C. in a standard CO2 cell culture incubator.
INS-TMEM27 cells are seeded in 96-well plates. After 2 days in culture, BACE2 inhibitor is added in a range of concentrations as required by the assay and after a further two hours, doxycycline is added to a final concentration of 500 ng/ml. The cells are incubated for a further 46 hours and the supernatant harvested for detection of shed TMEM27.
An ELISA assay (using a pair of mouse anti-human-TMEM27 antibodies, raised against the extracellular domain of TMEM27) is used for detection of TMEM27 in the culture medium. An EC50 for BACE2 inhibition is calculated using the ELISA readout for each inhibitor concentration with standard curve-fitting software such as XLFit for the Excel spreadsheet program.

Sequence of BACE1 (P56817 46-501): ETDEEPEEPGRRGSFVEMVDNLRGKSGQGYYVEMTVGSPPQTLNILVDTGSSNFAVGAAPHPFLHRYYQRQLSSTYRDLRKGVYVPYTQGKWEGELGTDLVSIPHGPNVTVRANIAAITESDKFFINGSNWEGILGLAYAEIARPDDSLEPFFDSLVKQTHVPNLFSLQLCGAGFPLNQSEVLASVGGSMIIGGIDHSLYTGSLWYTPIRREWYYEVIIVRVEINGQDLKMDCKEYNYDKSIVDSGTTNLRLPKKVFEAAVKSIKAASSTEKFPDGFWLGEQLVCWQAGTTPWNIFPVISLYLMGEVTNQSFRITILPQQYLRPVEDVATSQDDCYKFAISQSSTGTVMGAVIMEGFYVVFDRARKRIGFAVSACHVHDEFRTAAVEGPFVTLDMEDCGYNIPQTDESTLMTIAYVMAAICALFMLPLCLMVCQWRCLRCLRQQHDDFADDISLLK

Compound	IC50 (BACE1)	IC50 (BACE2)
COc1ccc(C(=O)Nc2ccc(F)c([C@@]3(C)N=C(N)OC[C@@H]3F)c2)nc1 [Example 13, 5-Methoxy-pyridine-2-carboxylic acid [3-((4R,5R)-2-amino-5-fluoro-4-methyl-5,6-dihydro-4H-[1,3]oxazin-4-yl)-4-fluoro-phenyl]-amide]	4 nM	65 nM
C[C@]1(c2cc(NC(=O)c3ccc(C#CC4CC4)cn3)ccc2F)N=C(N)OC[C@@H]1F [Example 14, 5-Cyclopropylethynyl-pyridine-2-carboxylic acid [3-((4R,5R)-2-amino-5-fluoro-4-methyl-5,6-dihydro-4H-[1,3]oxazin-4-yl)-4-fluoro-phenyl]-amide]	4 nM	9 nM
C[C@]1(c2cc(NC(=O)c3cnc(C(F)F)cn3)ccc2F)N=C(N)OC[C@@H]1F [Example 15, 5-Difluoromethyl-pyrazine-2-carboxylic acid [3-((4R,5R)-2-amino-5-fluoro-4-methyl-5,6-dihydro-4H-[1,3]oxazin-4-yl)-4-fluoro-phenyl]-amide]	5 nM	23 nM
C[C@]1(c2cc(NC(=O)c3cnc(OCC4CC4)cn3)ccc2F)N=C(N)OC[C@@H]1F [Example 16, 5-Cyclopropylmethoxy-pyrazine-2-carboxylic acid [3-((4R,5R)-2-amino-5-fluoro-4-methyl-5,6-dihydro-4H-[1,3]oxazin-4-yl)-4-fluoro-phenyl]-amide]	5 nM	590 nM
C[C@]1(c2cc(NC(=O)c3ccc(OCC(F)(F)F)cn3)ccc2F)N=C(N)OC[C@@H]1F [Example 17, 5-(2,2,2-Trifluoro-ethoxy)-pyridine-2-carboxylic acid [3-((4R,5R)-2-amino-5-fluoro-4-methyl-5,6-dihydro-4H-[1,3]oxazin-4-yl)-4-fluoro-phenyl]-amide]	8 nM	2300 nM
Cc1cc(C(=O)Nc2ccc(F)c([C@@]3(C)N=C(N)OC[C@@H]3F)c2)c(C)o1 [Example 18, 2,5-Dimethyl-furan-3-carboxylic acid [3-((4R,5R)-2-amino-5-fluoro-4-methyl-5,6-dihydro-4H-[1,3]oxazin-4-yl)-4-fluoro-phenyl]-amide]	8 nM	20 nM
C[C@]1(c2cc(NC(=O)c3ccc(F)cn3)ccc2F)N=C(N)OC[C@@H]1F [Example 20, 5-Fluoro-pyridine-2-carboxylic acid [3-((4R,5R)-2-amino-5-fluoro-4-methyl-5,6-dihydro-4H-[1,3]oxazin-4-yl)-4-fluoro-phenyl]-amide]	10 nM	7 nM
C[C@]1(c2cc(NC(=O)c3ccc(C4CC4)cn3)ccc2F)N=C(N)OC[C@@H]1F [Example 22, 5-Cyclopropyl-pyridine-2-carboxylic acid [3-((4R,5R)-2-amino-5-fluoro-4-methyl-5,6-dihydro-4H-[1,3]oxazin-4-yl)-4-fluoro-phenyl]-amide]	14 nM	124 nM
C[C@]1(c2cc(NC(=O)c3cnc(Cl)s3)ccc2F)N=C(N)OC[C@@H]1F [Example 26, 2-Chloro-thiazole-5-carboxylic acid [3-((4R,5R)-2-amino-5-fluoro-4-methyl-5,6-dihydro-4H-[1,3]oxazin-4-yl)-4-fluoro-phenyl]-amide]	81 nM	1400 nM
Cn1nc(C(F)(F)F)cc1C(=O)Nc1ccc(F)c([C@@]2(C)N=C(N)OC[C@@H]2F)c1 [Example 27, 2-Methyl-5-trifluoromethyl-2H-pyrazole-3-carboxylic acid [3-((4R,5R)-2-amino-5-fluoro-4-methyl-5,6-dihydro-4H-[1,3]oxazin-4-yl)-4-fluoro-phenyl]-amide]	90 nM	709 nM
C[C@]1(c2cc(NC(=O)c3n[nH]cc3Cl)ccc2F)N=C(N)OC[C@@H]1F [Example 28, 4-Chloro-1H-pyrazole-3-carboxylic acid [3-((4R,5R)-2-amino-5-fluoro-4-methyl-5,6-dihydro-4H-[1,3]oxazin-4-yl)-4-fluoro-phenyl]-amide]	130 nM	35 nM
C[C@]1(c2cc(NC(=O)c3ncc(C#N)cc3Cl)ccc2F)N=C(N)OC[C@H]1F [Example 35, 3-Chloro-5-cyano-pyridine-2-carboxylic acid [3-((4R,5S)-2-amino-5-fluoro-4-methyl-5,6-dihydro-4H-[1,3]oxazin-4-yl)-4-fluoro-phenyl]-amide]	82 nM	511 nM
C[C@]1(c2cc(NC(=O)c3ncc(C(F)(F)F)cc3Cl)ccc2F)N=C(N)OC[C@H]1F [Example 36, 3-Chloro-5-trifluoromethyl-pyridine-2-carboxylic acid [3-((4R,5S)-2-amino-5-fluoro-4-methyl-5,6-dihydro-4H-[1,3]oxazin-4-yl)-4-fluoro-phenyl]-amide]	140 nM	4030 nM
C[C@]1(F)COC(N)=N[C@]1(C)c1cc(NC(=O)c2ncccc2OCC(F)(F)F)ccc1F [Example 37, 3-(2,2,2-Trifluoro-ethoxy)-pyridine-2-carboxylic acid [3-((4R,5R)-2-amino-5-fluoro-4,5-dimethyl-5,6-dihydro-4H-[1,3]oxazin-4-yl)-4-fluoro-phenyl]-amide]	22 nM	226 nM
C[C@]1(F)COC(N)=N[C@]1(C)c1cc(NC(=O)c2ccc(C#N)cn2)ccc1F [Example 38, 5-Cyano-pyridine-2-carboxylic acid [3-((4R,5R)-2-amino-5-fluoro-4,5-dimethyl-5,6-dihydro-4H-[1,3]oxazin-4-yl)-4-fluoro-phenyl]-amide]	0.4 nM	23 nM
C[C@]1(F)COC(N)=N[C@]1(C)c1cc(NC(=O)c2ncc(Cl)cc2Cl)ccc1F [Example 39, 3,5-Dichloro-pyridine-2-carboxylic acid [3-((4R,5R)-2-amino-5-fluoro-4,5-dimethyl-5,6-dihydro-4H-[1,3]oxazin-4-yl)-4-fluoro-phenyl]-amide]	2 nM	4 nM
C[C@]1(F)COC(N)=N[C@]1(C)c1cc(NC(=O)c2nn(C(F)F)cc2Cl)ccc1F [Example 40, 4-Chloro-1-difluoromethyl-1H-pyrazole-3-carboxylic acid [3-((4R,5R)-2-amino-5-fluoro-4,5-dimethyl-5,6-dihydro-4H-[1,3]oxazin-4-yl)-4-fluoro-phenyl]amide]	2 nM	31 nM
C[C@]1(F)COC(N)=N[C@]1(C)c1cc(NC(=O)c2ccc(Cl)cn2)ccc1F [Example 41, 5-Chloro-pyridine-2-carboxylic acid [3-((4R,5R)-2-amino-5-fluoro-4,5-dimethyl-5,6-dihydro-4H-[1,3]oxazin-4-yl)-4-fluoro-phenyl]-amide]	3 nM	6 nM
C[C@]1(F)COC(N)=N[C@]1(C)c1cc(NC(=O)c2ccc(F)cn2)ccc1F [Example 42, 5-Fluoro-pyridine-2-carboxylic acid [3-((4R,5R)-2-amino-5-fluoro-4,5-dimethyl-5,6-dihydro-4H-[1,3]oxazin-4-yl)-4-fluoro-phenyl]-amide]	11 nM	74 nM
C[C@]1(F)COC(N)=N[C@]1(C)c1cc(NC(=O)c2nn(CC(F)F)cc2Cl)ccc1F [Example 43, 4-Chloro-1-(2,2-difluoro-ethyl)-1H-pyrazole-3-carboxylic acid [3-((4R,5R)-2-amino-5-fluoro-4,5-dimethyl-5,6-dihydro-4H-[1,3]oxazin-4-yl)-4-fluoro-phenyl]amide]	183 nM	110 nM
C[C@]1(F)COC(N)=N[C@]1(C)c1cc(NC(=O)C2CC2(F)F)ccc1F (stereo partly drawn) [Example 44, 2,2-Difluoro-cyclopropanecarboxylic acid [3-((4R,5R)-2-amino-5-fluoro-4,5-dimethyl-5,6-dihydro-4H-[1,3]oxazin-4-yl)-4-fluoro-phenyl]-amide]	32 nM	140 nM
C[C@]1(c2cc(NC(=O)c3ccc(Cl)cn3)ccc2F)N=C(N)OC[C@@H]1OCC(F)(F)F [Example 45, 5-Chloro-pyridine-2-carboxylic acid {3-[(4R,5R)-2-amino-4-methyl-5-(2,2,2-trifluoro-ethoxy)-5,6-dihydro-4H-[1,3]oxazin-4-yl]-4-fluoro-phenyl}-amide]	1 nM	61 nM
